Target: hAC2 (Homo sapiens, UniProt Q08462)
Test: stimulation of adenylate cyclase activity, HTRF cAMP assay
Format: biochemical
Settings: 25 μM forskolin alone, no Gsα, no serum; 1 mM ATP, 2 mM MgCl2, pH 7.5

hAC2, sequence (Q08462 whole entry): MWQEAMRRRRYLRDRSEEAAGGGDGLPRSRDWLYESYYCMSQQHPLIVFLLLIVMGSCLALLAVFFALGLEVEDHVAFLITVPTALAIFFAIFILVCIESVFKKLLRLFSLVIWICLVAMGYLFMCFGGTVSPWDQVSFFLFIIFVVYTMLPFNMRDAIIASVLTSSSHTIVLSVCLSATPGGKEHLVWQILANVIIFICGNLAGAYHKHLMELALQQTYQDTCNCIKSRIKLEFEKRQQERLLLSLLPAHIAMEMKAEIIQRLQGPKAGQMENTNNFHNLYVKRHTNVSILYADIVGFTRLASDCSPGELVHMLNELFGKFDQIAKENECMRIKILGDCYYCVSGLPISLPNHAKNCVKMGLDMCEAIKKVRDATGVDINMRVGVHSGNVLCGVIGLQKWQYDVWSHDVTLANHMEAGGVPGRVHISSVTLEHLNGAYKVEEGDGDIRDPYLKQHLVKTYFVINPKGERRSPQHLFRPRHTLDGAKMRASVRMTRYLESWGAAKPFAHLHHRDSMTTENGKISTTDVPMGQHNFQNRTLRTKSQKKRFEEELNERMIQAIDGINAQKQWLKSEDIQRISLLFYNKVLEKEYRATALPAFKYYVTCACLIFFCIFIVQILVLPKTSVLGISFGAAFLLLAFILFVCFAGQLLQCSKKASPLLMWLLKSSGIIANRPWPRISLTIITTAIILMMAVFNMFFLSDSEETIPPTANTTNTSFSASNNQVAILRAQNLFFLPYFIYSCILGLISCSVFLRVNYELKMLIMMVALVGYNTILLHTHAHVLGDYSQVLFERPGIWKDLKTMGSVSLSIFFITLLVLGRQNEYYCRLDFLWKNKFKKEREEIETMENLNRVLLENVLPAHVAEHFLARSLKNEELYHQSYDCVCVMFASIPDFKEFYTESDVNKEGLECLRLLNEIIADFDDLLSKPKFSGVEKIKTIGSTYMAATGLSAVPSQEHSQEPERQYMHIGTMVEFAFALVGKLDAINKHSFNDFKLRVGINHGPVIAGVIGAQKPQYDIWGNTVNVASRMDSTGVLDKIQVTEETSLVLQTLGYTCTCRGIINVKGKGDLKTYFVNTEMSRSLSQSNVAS

In the case of `C=C[C@@]1(C)CC(=O)[C@]2(O)[C@@]3(C)[C@@H](O)CCC(C)(C)[C@@H]3[C@H](O)[C@H](OC(C)=O)[C@@]2(C)O1` [forskolin], the “fold stimulation at 25 μM” value was ~ 2.4 fold.
